Experimental data published in patent publication US20230123104A1, “CRYSTAL OF TRICYCLIC COMPOUND ACTING ON CRBN PROTEIN AND PREPARATION METHOD THEREFOR” (CHIA TAI TIANQING PHARMACEUTICAL GROUP CO., LTD., priority 2020, published 2023).

Legend:
[1] = system: multiple myeloma cell line MM.1S; assay: Antiproliferative effect, CellTiter-Glo cell viability assay, MM.1S; type: cell-based, human
Method: (§1) In this experiment, the inhibition of cell proliferation in multiple myeloma cell lines MM.1S and NCI-H929 by the compound of formula (I) was detected.
(§2) The tumor cell lines were cultured in an incubator at 37° C. with 5% CO2 under the culture conditions described above. Periodical passaging was performed, and cells growing at log phase were used for plating.
(§3) (1) Cells were stained with trypan blue and viable cells were counted.
(§4) (2) The cell concentration was adjusted to an appropriate level.
(§5) (3) 90 μL of cell suspension was added to each well in the culture plate and cell-free medium was added to the blank control wells according to the table above.
(§6) (4) The culture plate was incubated overnight in an incubator at 37° C. with 5% CO2 and 100% relative humidity. […]
(§7) The following procedure was performed according to the instructions of Promega CellTiter-Glo luminescence cell viability assay kit (Promega-G7573). […]
(§8) (8) The culture plate was placed at room temperature for 10 min to stabilize the luminescence signals.
(§9) (9) The luminescence signals were detected on 2104 EnVision plate reader.
(§10) Inhibition rates of the compound of formula (I) at different concentrations were calculated in Excel, followed by plotting the inhibition curves and calculating relevant parameters including minimum inhibition rate, maximum inhibition rate and IC50 using GraphPad Prism software.

[2] = system: multiple myeloma cell line NCI-H929; assay: Antiproliferative effect, CellTiter-Glo cell viability assay, NCI-H929; type: cell-based
Method: as §1, §2, §3, §4, §5, §6, §7, §8, §9, §10

[3] = Pharmacokinetic evaluation in mice; type: in vivo, C57BL male mice
Source text: The test animals in the study were C57BL male mice, and the LC/MS/MS method was used to quantitatively determine the drug concentration in the plasma of the mice at different time points after intravenous injection or oral administration of the test compound, thus evaluating the pharmacokinetic characteristics of the compound of formula (I) in the mice.
C57Balb/C (C57) mice (male, 20-30 g, 7-10 weeks old, Beijing Vital River or Shanghai SLAC).
Clear or suspended solution of the compound of formula (I) was injected into C57 mice (fasted overnight) via the tail vein or administered intragastrically to C57 mice (fasted overnight). For intravenous injection, […] of blood was each collected by jugular vein puncture at 0 h (before injection) and 0.0833 h, 0.25 h, 0.5 h, 1 h, 2 h, 4 h, 6 h, 8 h and 24 h (after injection), and then placed in an anticoagulation tube added with EDTA-K2 (Jiangsu KANGJIAN Medical Apparatus Co., Ltd.), and the mixture was thoroughly vortex-mixed at 4° C. and centrifuged at 13000 rpm for 10 min; for intragastric administration, blood was collected by jugular vein puncture at 0 h (before administration) and 0.5 h, 1 h, 2 h, 4 h, 6 h, 8 h and 24 h (after administration), and then placed in an anticoagulation tube added with EDTA-K2 (Jiangsu KANGJIAN Medical Apparatus Co., Ltd.), and the mixture was thoroughly vortex-mixed and centrifuged at 13000 rpm for 10 min. The plasma concentration was measured by LC-MS/MS, and the relevant pharmacokinetic parameters were calculated using WinNonlin™ Version 6.3 (Pharsight, Mountain View, Calif.), a pharmacokinetic software, with a non-compartmental model linear-log trapezoidal method.

[4] = Pharmacokinetic evaluation in rats; type: in vivo, SD male rats
Source text: The test animals in the study were SD male rats, and the LC/MS/MS method was used to quantitatively determine the drug concentration in the plasma of the rats at different time points after intravenous injection or oral administration of the compound of formula (I), thus evaluating the pharmacokinetic characteristics of the compound of formula (I) in the rats.
Sprague Dawley (SD) rats (male, 200-300 g, 7-10 weeks old, Beijing Vital River or Shanghai SLAC).
Clear solution of the compound of formula (I) was injected into SD rats (fasted overnight) via the tail vein or administered intragastrically to SD rats (fasted overnight). For intravenous injection, 200 μL of blood was each collected by jugular vein puncture at 0 h (before injection) and 0.0833 h, 0.25 h, 0.5 h, 1 h, 2 h, 4 h, 6 h, 8 h and 24 h (after injection), and then placed in an anticoagulation tube added with EDTA-K2 (Jiangsu KANGJIAN Medical Apparatus Co., Ltd.), and the mixture was thoroughly vortex-mixed at 4° C. and centrifuged at 13000 rpm for 10 min; for intragastric administration, blood was collected by jugular vein puncture at 0 h (before administration) and 0.5 h, 1 h, 2 h, 4 h, 6 h, 8 h and 24 h (after administration), and then placed in an anticoagulation tube added with EDTA-K2 (Jiangsu KANGJIAN Medical Apparatus Co., Ltd), and the mixture was thoroughly vortex-mixed and centrifuged at 13000 rpm for 10 min. The plasma concentration was measured by LC-MS/MS, and the relevant pharmacokinetic parameters were calculated using WinNonlin™ Version 6.3 (Pharsight, Mountain View, Calif.), a pharmacokinetic software, with a non-compartmental model linear-log trapezoidal method.

[5] = system: human myeloma MM.1S cells; assay: In vivo pharmacodynamic study in subcutaneous xenograft tumor CB-17 SCID model; set-up: species or system CB-17 SCID mice; conditions: 5 mg/kg oral, twice daily
Method: Cell culturing: human multiple myeloma cells MM.1S (ATCC® CRL-2974™) were cultured in vitro, in a semi-suspension manner, with an ATCC-formulated RPMI-1640 medium containing 10% fetal calf serum, 100 U/mL penicillin and 100 μg/mL streptomycin in an incubator at 37° C. with 5% CO2. Passages were performed twice a week. At a required number, the cells were taken, counted and inoculated.
Animals: CB-17 SCID mice, female, 6-8 weeks old, weighing 18-20 g.
0.2 mL (5×10^6 cells) of MM.1S cells (along with matrigel in a volume ratio of 1:1) was subcutaneously inoculated on the right back of each mouse, and the mice were divided into groups for administration after the mean tumor volume was approximately 130 mm^3. Seven days constitute an administration cycle, twice daily with a 12 h interval, and the compound of formula (I) was orally administered for a total of four cycles. The compound of formula (I) was administered at a dose of 5 mg/kg, tumor volume was measured twice weekly with a two-dimensional caliper, and the volume was measured in cubic millimeters and calculated according to the following formula: V=0.5a×b^2, where a and b are the long and short diameters, respectively, of the tumor. Anti-tumor efficacy was determined by dividing the mean tumor increase volume of animals treated with the compound of formula (I) by the mean tumor increase volume of untreated animals.

[6] = intravenous injection (2 mg/kg)
[7] = intragastric administration (10 mg/kg)

O=C1CCC(c2noc3ccc4[nH]ccc4c23)C(=O)N1 (centres unmarked) [Compound of formula (I)]
inhibitory effect on cell proliferation (conclusion) [1]: excellent inhibitory effect
IC50 ([1]; Homo sapiens, MM1.S, 120 h, co-incubated 5 days, CellTiter-Glo): 0.4 nM
IC50 ([2]; Homo sapiens, 120 h, NCI-H929, co-incubated 5 days, CellTiter-Glo): 0.5 nM
inhibitory effect on cell proliferation (conclusion) ([2]; NCI-H929): excellent inhibitory effect
Area under plasma concentration-time curve (0-inf) [3, 6]: 5.34 µM·h
Area under plasma concentration-time curve (0-inf) ([3]; oral administration (10 mg/kg)): 12.29 µM·h
Bioavailability F ([3]; oral administration (10 mg/kg)): 46.1%
Peak concentration ([3]; oral administration (10 mg/kg)): 10.52 µM
Time to peak ([3]; oral administration (10 mg/kg)): 0.25 h
Area under plasma concentration-time curve (0-inf) [4, 7]: 26.34 µM·h
Bioavailability F [4, 7]: 66.5%
Peak concentration [4, 7]: 12.75 µM
Time to peak [4, 7]: 0.50 h
Area under plasma concentration-time curve (0-inf) [4, 6]: 7.92 µM·h
Tumor volume (Day 0) ([5]; Day 0): 131 ± 12 mm^3
TGI (Day 24) ([5]; Day 24): 105%
Tumor volume (Day 24) ([5]; Day 24): 14 ± 5 mm^3
